Test results as given in patent US12344610B2, “APOL1 inhibitors and methods of use” (Maze Therapeutics, Inc., priority 2022, dated 2025).

Tested on: human immortalized podocytes inducibly expressing APOL1 G2
Test: APOL1 G2 podocyte cell rescue assay (Example B4)
Assay type: cell-based
Conditions: Homo sapiens, differentiated human podocytes, doxycycline-induced APOL1 G2, CellTiter-Glo; geometric mean of at least 2 runs; † = single run
Procedure: APOL1 G2 human immortalized podocyte viability assay for measurement of cytotoxicity reversal by compound (APOL1 G2 podocyte cell rescue assay).
Cell Handling. The hTERT-immortalized kidney podocyte cell line was procured from the laboratory of Dr. Moin Saleem at the University of Bristol, UK (Nephrology 17 (2012) 525-531; doi:10.1111/j.1440-1797.2012.01619.x; herein incorporated by reference in its entirety). Parental and engineered cell lines were cultured in RPMI 1640 media (Gibco, 11875093) with 10% Tet System Approved FBS (Takara, 631101). The engineered cell line was maintained under selection (2.5 μg/mL puromycin). Cell lines were maintained and engineered at 33° C. Cell cultures were transferred to 37° C. for 10 to 14 days to initiate differentiation (Nephrology 17 (2012) 525-531; doi:10.1111/j.1440-1797.2012.01619.x; herein incorporated by reference in its entirety). During this time, media was refreshed every 3 days. After differentiation, cells engineered to inducibly express APOL1 G2 were used in the podocyte cell rescue assay.
Cell Line Engineering. The APOL1 G2 coding sequence was cloned into the pLVX-TetOne-Puro vector and verified by sequencing (Genscript Biotech). This construct was designed to have a C-terminal HiBiT tag. Lentiviral packaging of the vector was conducted using the Lenti-X Packaging Single Shots (VSVG) system according to manufacturer instructions (Takara Bio, 631275). A stable cell line was generated by transfecting the parental podocyte cell line with the concentrated virus in media with 5 μg/mL polybrene (Sigma, TR-1003-G). Media was changed the following day. 72 hours post transfection, 2.5 μg/mL puromycin (Gibco, A1113803) was added to the cells and cells were maintained in selection media thereafter. This APOL1 G2 stable cellular pool was subjected to a stringent limiting dilution to generate a pure stable clone (Podocyte/pLVX-TetOne APOL1 G2/clone D10) capable of inducible expression of APOL1 G2.
Assay Setup. T175 flasks containing differentiated podocytes engineered to inducibly express APOL1 G2 (Podocyte/pLVX-TetOne APOL1 G2/clone D10) were washed once with 15 mL of DPBS (Thermo Fisher, 14190-144). These flasks were each trypsinized with 3 mL of prewarmed TrypLE Express (Gibco, 12605-010) and incubated at 37° C. with 5% CO2 until cells detached and neutralized with 7 mL of prewarmed assay media (RPMI 1640 media with 10% Tet System Approved FBS, no selection agent). Cells were pooled and the resulting suspension was gently mixed. The cell suspension was counted using a Countess Cell Counting Chamber (Invitrogen) and the cell concentration was adjusted to 240,000 cells/mL using assay media. Next, 25 μL of a 480 ng/mL working stock of doxycycline diluted in assay media was added to an assay ready plate. All experiments were performed in 384-well, white, solid bottom, tissue culture treated plates (Greiner, 781080). The assay ready compound plates were generated with duplicate 8-point compound dilution series that consisted of 3-fold stepwise dilutions (0.4% DMSO final). The plates were centrifuged at 1000 rpm for 1 minute. 25 μL of diluted cell suspension (final cell density=6,000 cells/well) was added to each well. The plates were centrifuged again at 1000 rpm for 1 minute and then incubated in a humidified incubator (37° C. with 5% CO2). After 95 hours, the assay plates were removed from the incubator and allowed to equilibrate to room temperature for 1 hour. CellTiter-Glo® reagent (Promega, G7570) was prepared according to the manufacturer's instructions. 25 μL of CellTiter-Glo® reagent was added to each well. Assay plates were sealed with foil and mixed for 5 minutes on an orbital shaker (500 rpm) to induce cell lysis. Plates were centrifuged at 1000 rpm for 1 minute. 10 minutes after CellTiter-Glo® reagent addition, an Envision plate reader (Perkin Elmer) was used to measure the luminescent signal of each assay plate. Collaborative Drug Discovery software was utilized for graphing data. […]

CN(c1c(F)cc(OCCN2CCC3(CC2)C(=O)Nc2ccc(Cl)cc23)cc1F)S(C)(=O)=O [Compound 127, N-[4-(2-{5-chloro-2-oxo-1,2-dihydrospiro[indole-3,4′-piperidin]-1′-yl}ethoxy)-2,6-difluorophenyl]-N-methylmethanesulfonamide]
EC50: 5.39 nM
